Measurements as given in US20230303483A1, “USE OF STROBILURIN TYPE COMPOUNDS FOR COMBATING PHYTOPATHOGENIC FUNGI CONTAINING AN AMINO ACID SUBSTITUTION F129L IN THE MITOCHONDRIAL CYTOCHROME B PROTEIN CONFERRING RESISTANCE TO QO […]” (BASF SE, priority 2020, published 2023).

Columns and labels:
[1] = tested on: Phakopsora pachyrhizi (strain containing the amino acid substitution F129L in the mitochondrial cytochrome b protein); assay: Use example 1: protective control of soybean rust on soybeans (PHAKPA P2), inoculation 2 days after spraying; format: in vivo; conditions: % diseased leaf area on soybean, 16 ppm spray, inoculation 2 days after treatment, untreated controls usually >85 %
Experimental: (§1) The compound was dissolved in a mixture of acetone and/or dimethylsulfoxide and the wetting agent/emulsifier Wettol, which is based on ethoxylated alkylphenoles, in a ratio (volume) solvent-emulsifier of 99 to 1 to give a total volume of 5 ml. Subsequently, water was added to total volume of 100 ml. This stock solution was then diluted with the described solvent-emulsifier-water mixture to the final concentration given in the table below.
Use example 1. Protective control of soybean rust on soybeans caused by Phakopsora pachyrhizi (PHAKPA P2)
(§2) Leaves of potted soybean seedlings were sprayed to run-off with the previously described spray solution, containing the concentration of active ingredient or their mixture as described below. The plants were allowed to air-dry. The trial plants were cultivated for 2 days in a greenhouse chamber at 23-27° C. and a relative humidity between 60 and 80 %. Then the plants were inoculated with spores of Phakopsora pachyrhizi. The strain used contains the amino acid substitution F129L in the mitochondrial cytochrome b protein conferring resistance to Qo inhibitors. To ensure the success the artificial inoculation, the plants were transferred to a humid chamber with a relative humidity of about 95 % and 20 to 24° C. for 24 hr. The trial plants were cultivated for up to 14 days in a greenhouse chamber at 23 to 27° C. and a relative humidity between 60 and 80 %. The extent of fungal attack on the leaves was visually assessed as % diseased leaf area, the disease level of untreated controls was usually higher than 85 %.
(§3) All test results below are given for the control of phytopathogenic fungi containing the amino acid substitution F129L in the mitochondrial cytochrome b protein conferring resistance to Qo inhibitors.

[2] = tested on: Phakopsora pachyrhizi (strain containing the amino acid substitution F129L in the mitochondrial cytochrome b protein); assay: Use example 2: protective control of soybean rust on soybeans (PHAKPA P6), inoculation six days after spraying; format: in vivo; conditions: % diseased leaf area on soybean, 16 ppm spray, inoculation six days after treatment, untreated controls usually >85 %
Experimental: as §1
Use example 2. Protective control of soybean rust on soybeans caused by Phakopsora pachyrhizi (PHAKPA P6)
as §2, with “active ingredient as described” for “active ingredient or their mixture as described”, “cultivated for six days in” for “cultivated for 2 days in”, “% and 23 to 27°” for “% and 20 to 24°”, “23 to 27° C. for” for “20 to 24° C. for”
as §3

| SMILES | PHAKPA Disease level (%) P2 at 16 ppm [1] | PHAKPA Disease level (%) P6 at 16 ppm [2] |
| --- | --- | --- |
| CO/N=C(/C(=O)OC)c1cccc(C)c1CO/N=C(\C)C#Cc1ccc(C(F)(F)F)cc1 [Example 64] | 43% | 60% |
| CO/N=C(/C(=O)OC)c1cccc(C)c1CO/N=C(\C)C#Cc1ccc(F)cc1C(=O)OC [Example 125] | 17% | 45% |
| CO/N=C(/C(=O)OC)c1ccccc1CO/N=C(\C)C#Cc1c(C2CC2)cccc1C(F)(F)F [Example 108] | 90% | 87% |
| CO/N=C(/C(=O)OC)c1ccccc1CO/N=C(\C)C#Cc1ccc(Cl)cc1C1CC1 [Example 91] | 53% | 43% |
| CNC(=O)/C(=N/OC)c1ccccc1CO/N=C(\C)C#Cc1cccc(C)c1 [Example 58] | 2% | 4% |
| COC/C(C#Cc1ccc(Cl)cc1)=N\OCc1ccccc1/C(=N\OC)C(=O)OC [Example 113] | 87% | 77% |
| CO/N=C(/C(=O)OC)c1cccc(C)c1CO/N=C(\C)C#Cc1ccccc1Cl [Example 75] | 22% | 40% |
| CO/N=C(/C(=O)OC)c1cccc(C)c1CO/N=C(\C)C#Cc1cccc(OC(F)(F)F)c1 [Example 28] | 0% | 0% |
| CNC(=O)/C(=N/OC)c1ccccc1CO/N=C(\C)C#Cc1ccccc1Cl [Example 76] | 3% | 4% |
| CO/N=C(/C(=O)OC)c1ccccc1CO/N=C(\C)C#Cc1ccccc1 [Example 1, Methyl (2E)-2-methoxyimino-2-[2-[[(E)-(1-methyl-3-phenyl-prop-2-ynylidene)amino]-oxymethyl]phenyl]acetate] | 38% | 58% |
| CO/N=C(/C(=O)OC)c1ccccc1CO/N=C(\C)C#Cc1ccc(F)cc1 [Example 7] | 30% | 50% |
| CO/N=C(/C(=O)OC)c1cccc(C)c1CO/N=C(\C)C#Cc1ccccc1Br [Example 45] | 25% | 22% |
| CNC(=O)/C(=N/OC)c1ccccc1CO/N=C(\C)C#Cc1c(C2CC2)cccc1C(F)(F)F [Example 119] | 77% | 77% |
| CO/N=C(/C(=O)OC)c1ccccc1CO/N=C(\C)C#Cc1ccc(Cl)cc1F [Example 90] | 30% | 57% |
| CO/N=C(/C(=O)OC)c1ccccc1CO/N=C(\C)C#Cc1ccc(Oc2ccc(F)cc2)cc1 [Example 100] | 77% | 77% |
| CNC(=O)/C(=N/OC)c1ccccc1CO/N=C(\C)C#Cc1ccc2c(c1)OC(F)(F)O2 [Example 84] | 77% | 67% |
| CNC(=O)/C(=N/OC)c1ccccc1CO/N=C(\C)C#Cc1ccc(Cl)cc1F [Example 83] | 17% | 22% |
| CNC(=O)/C(=N/OC)c1ccccc1CO/N=C(\C)C#Cc1ccc(OC(F)(F)F)cc1C1CC1 [Example 120] | 15% | 22% |
| CO/C=C(/C(=O)OC)c1cccc(C)c1CO/N=C(\C)C#Cc1ccc(F)cc1 [Example 70] | 0% | 0% |
| CO/N=C(/C(=O)OC)c1cccc(C)c1CO/N=C(\C)C#Cc1ccccc1C [Example 23] | 0% | 0% |
| CO/N=C(/C(=O)OC)c1ccccc1CO/N=C(\C)C#Cc1cccc(Cl)c1 [Example 71] | 20% | 17% |
| CNC(=O)/C(=N/OC)c1ccccc1CO/N=C(/C#Cc1ccc(Cl)cc1)COC [Example 112] | 38% | 25% |

| SMILES | PHAKPA Disease level (%) P2 at 16 ppm [1] | PHAKPA Disease level (%) P6 at 16 ppm [2] |
| --- | --- | --- |
| CO/N=C(/C(=O)OC)c1ccccc1CO/N=C(\C)C#Cc1ccc(OC2CC2)cc1 [Example 102] | 80% | 63% |
| CNC(=O)/C(=N/OC)c1cccc(C)c1CO/N=C(\C)C#Cc1ccccc1 [Example 16, (2E)-2-Methoxyimino-N-methyl-2-[3-methyl-2-[[(E)-(1-methyl-3-phenyl-prop-2-ynylidene)amino]oxymethyl]phenyl]acetamide] | 0% | 0% |
| CO/N=C(/C(=O)OC)c1ccccc1CO/N=C(\C)C#Cc1c(Cl)cccc1Cl [Example 93] | 87% | 97% |
| CO/N=C(/C(=O)OC)c1ccccc1CO/N=C(\C)C#Cc1cccc(F)c1 [Example 35] | 32% | 25% |
| CNC(=O)/C(=N/OC)c1ccccc1CO/N=C(\C)C#Cc1ccc(F)cc1 [Example 8] | 0% | 0.7% |
| CO/C=C(/C(=O)OC)c1cccc(C)c1CO/N=C(\C)C#Cc1ccc(F)cc1C(=O)OC [Example 124] | 14% | 53% |
| CNC(=O)/C(=N/OC)c1cccc(C)c1CO/N=C(\C)C#Cc1cccc(Cl)c1 [Example 77] | 0% | 0% |
| CO/N=C(/C(=O)OC)c1ccccc1CO/N=C(\C)C#Cc1ccc(Cl)cc1C(F)(F)F [Example 94] | 53% | 47% |
| CO/N=C(/C(=O)OC)c1cccc(C)c1CO/N=C(\C)C#Cc1ccc(F)cc1C(=O)OC [Example 127] | 53% | 47% |
| CNC(=O)/C(=N/OC)c1cccc(C)c1CO/N=C(\C)C#Cc1cccc(C(F)(F)F)c1 [Example 40] | 0% | 0% |
| CNC(=O)/C(=N/OC)c1ccccc1CO/N=C(\C)C#Cc1cccc(Br)c1 [Example 5] | 1% | 7% |
| CO/N=C(/C(=O)OC)c1cccc(C)c1CO/N=C(\C)C#Cc1cccc(Br)c1 [Example 30] | 0% | 0% |
| CNC(=O)/C(=N/OC)c1ccccc1CO/N=C(\C)C#Cc1ccccc1F [Example 62] | 2% | 2% |
| CNC(=O)/C(=N/OC)c1ccccc1CO/N=C(\C)C#Cc1ccc(OC(F)(F)F)cc1 [Example 11, (2E)-2-Methoxyimino-N-methyl-2-[2-[[(E)-[1-methyl-3-[4-(trifluoromethoxy)phenyl]-prop-2-ynylidene]amino]oxymethyl]phenyl]acetamide] | 53% | 67% |
| CO/N=C(/C(=O)OC)c1ccccc1CO/N=C(\C)C#Cc1ccc(Cl)cc1-c1ccc(F)cc1 [Example 118] | 3% | 4% |
| CNC(=O)/C(=N/OC)c1ccccc1CO/N=C(\C)C#Cc1ccc(Oc2ccc(F)cc2)cc1 [Example 111] | 33% | 23% |
| CO/N=C(/C(=O)OC)c1ccccc1CO/N=C(\C)C#Cc1cccc(OC(F)(F)F)c1 [Example 52] | 13% | 33% |
| CO/N=C(/C(=O)OC)c1ccccc1CO/N=C(\C)C#Cc1ccccc1Br [Example 46] | 47% | 37% |
| CNC(=O)/C(=N/OC)c1ccccc1CO/N=C(\C)C#Cc1ccc(Cl)cc1C(F)(F)F [Example 99] | 0% | 0% |
| CNC(=O)/C(=N/OC)c1ccccc1CO/N=C(\C)C#Cc1ccc(OCC(F)(F)F)cc1 [Example 104] | 53% | 32% |
| CNC(=O)/C(=N/OC)c1cccc(C)c1CO/N=C(\C)C#Cc1ccc(C)cc1 [Example 19] | 0% | 0.6% |
